This is an account of results in ChEMBL document CHEMBL6115038, “Immunoproteasome as a Target for Prodrugs” (J Med Chem, 2025).

Calls of active or inactive are those of the source. The rule behind the calls is not given here. Peptide text beside a SMILES is read from it. * marks the point of attachment. Doxorubicin(3'-N) = COc1cccc2c1C(=O)c1c(O)c3c(c(O)c1C2=O)C[C@@](O)(C(=O)CO)C[C@@H]3O[C@H]1C[C@H](N*)[C@H](O)[C@H](C)O1; Morpholinoacetyl = O=C(CN1CCOCC1)*

For data set [1], the system named is 20S proteasome. As to the kind of experiment: Prodrug release in tris HCL buffer at pH 7.4 assessed as human 20S immunoproteasome mediated hydrolysis by measuring Dox release at 10 uM incubated for 4 hrs in presence of 37.5 to 75 nM of PA28alpha/beta activated complex by mass spectrometry analysis. Type of data set: ADME, protein-complex assay. The following applies: pH 7.4, 4 h.

Data set [2] deals with 20S proteasome. The data set can be described thus: Prodrug release in tris HCL buffer assessed as human 20S immunoproteasome-mediated hydrolysis by measuring Dox release measured upto 8 hrs by mass spectrometry analysis. Type of data set: ADME, protein-complex assay.
Data set [3] deals with 20S proteasome. The data set can be described thus: Prodrug release in tris HCL buffer at pH 7.4 assessed as human 20S immunoproteasome mediated hydrolysis by measuring Dox release at 10 uM incubated for 90 mins in presence of PA28alpha/beta activated complex by fluorescence based analysis. In kind it is ADME, protein-complex assay. The following applies: pH 7.4, 1.5 h.
Data set [4] has as its system 20S proteasome. As to the kind of experiment: Prodrug release in tris HCL buffer at pH 7.4 assessed as human 20S immunoproteasome mediated hydrolysis by measuring Dox release at 10 uM incubated for 4 hrs in presence of PA28alpha/beta activated complex by mass spectrometry analysis. As to conditions: pH 7.4, 4 h. In kind it is ADME, protein-complex assay.
The target of data set [5] is T1, von Hippel-Lindau disease tumor suppressor/Bromodomain-containing protein 4 (Homo sapiens) (UniProt O60885+P40337). The data set can be described thus: PROTAC activity at BRD4/VHL in human Ramos cells expressing iCP assessed as induction of BRD4 degradation at 100 nM compound administered as prodrug-PROTAC incubated for 18 hrs in presence of ONX-0914 by immunoblotting analysis. In kind it is cell-based. (In general: A western blot detects proteins with antibodies after separation by electrophoresis.)

Data set [6] concerns Ramos. As to the kind of experiment: Cytotoxicity against human Ramos cells assessed as cell viability incubated for 24 hrs by celltiter-glo assay. Type of data set: functional, cell-based. (In ATP-based viability assays light output follows the ATP content of the culture.)
A short description of data set [7]: Cytotoxicity against human AC16 [Human hybrid] cells expressing iCP assessed as cell viability incubated for 24 hrs by celltiter-glo assay. In kind it is toxicity, cell-based.
Data set [8] addresses T1, von Hippel-Lindau disease tumor suppressor/Bromodomain-containing protein 4 (Homo sapiens). As to the kind of experiment: PROTAC activity at BRD4/VHL in human Ramos cells expressing iCP assessed as induction of BRD4 degradation at 1 nM compound administered as prodrug-PROTAC incubated for 18 hrs by immunoblotting analysis. Type of data set: cell-based.
Data set [9] can be described thus: Stability in human serum incubated for 1 hr by mass spectrometry analysis. Type of data set: ADME, cell-free.
In data set [10] the test system is Ramos. The data set can be described thus: Cytotoxicity against human Ramos cells assessed as cell viability incubated for 72 hrs by celltiter-glo assay. Type of data set: functional, cell-based.
Data set [11] can be described thus: Cytotoxicity against human AC16 [Human hybrid] cells assessed as cell viability at 20 uM incubated for 72 hrs by celltiter-glo assay relative to control. As to conditions: read-out: Activity. In kind it is toxicity, cell-based.
For the next data set, the system named is MM.1R. As to the kind of experiment: Cytotoxicity against human MM1.R cells assessed as cell viability at 0.0001 to 100 uM incubated for 72 hrs by celltiter-glo assay. The following applies: dose 0.0001-100 µM. Type of data set: functional, cell-based.
In the next data set the test system is Raji. As to the kind of experiment: Cytotoxicity against human Raji cells assessed as cell viability at 0.0001 to 100 uM incubated for 72 hrs by celltiter-glo assay. In kind it is functional, cell-based. The following applies: dose 0.0001-100 µM.
A short description of data set [12]: Cytotoxicity against human AC16 [Human hybrid] cells assessed as cell viability incubated for 72 hrs by celltiter-glo assay. In kind it is toxicity, cell-based.
Data set [13] can be described thus: Cytotoxicity against human AC16 [Human hybrid] cells assessed as cell viability at 10 uM incubated for 72 hrs by celltiter-glo assay relative to control. The following applies: read-out: Activity. Type of data set: toxicity, cell-based.
Data set [14] is described as follows: Prodrug release in tris HCL buffer assessed as human 20S proteasome core particle-mediated hydrolysis by measuring Dox release measured for 4 hrs by mass spectrometry analysis. Type of data set: ADME.
Data set [15] is described as follows: Prodrug release in tris HCL buffer assessed as human 20S proteasome core particle-mediated hydrolysis by measuring Dox release measured for 4 hrs in presence of PA28alpha/beta activated complex by mass spectrometry analysis. In kind it is ADME.

T1 sequence (P40337 whole entry, looked up, other chains not shown): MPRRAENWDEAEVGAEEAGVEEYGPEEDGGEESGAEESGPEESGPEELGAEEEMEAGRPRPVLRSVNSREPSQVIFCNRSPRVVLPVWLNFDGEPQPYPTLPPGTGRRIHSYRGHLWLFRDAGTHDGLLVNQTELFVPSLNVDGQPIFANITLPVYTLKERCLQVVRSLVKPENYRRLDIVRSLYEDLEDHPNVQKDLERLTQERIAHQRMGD

Turning to `COc1cccc2c1C(=O)c1c(O)c3c(c(O)c1C2=O)C[C@@](O)(C(=O)CO)C[C@@H]3O[C@H]1C[C@H](NC(=O)[C@H](C)NC(=O)[C@H](C)NC(=O)[C@H](C)NC(=O)[C@H](C)NC(C)=O)[C@H](O)[C@H](C)O1` (Ac-AAAA-{Doxorubicin(3'-N)}), the values for the Drug metabolism result with 20S proteasome [1] and in the data set on 20S proteasome [2] were “metabolite_notdetected” and “metabolite_detected”, respectively.
With `COc1cccc2c1C(=O)c1c(O)c3c(c(O)c1C2=O)C[C@@](O)(C(=O)CO)C[C@@H]3O[C@H]1C[C@H](NC(=O)[C@H](Cc2c[nH]c3ccccc23)NC(=O)[C@H](CCSC)NC(=O)[C@@H](NC(=O)[C@H](C)NC(C)=O)[C@@H](C)O)[C@H](O)[C@H](C)O1` (Ac-ATMW-{Doxorubicin(3'-N)}), the Drug metabolism result in the data set on 20S proteasome [3], in the data set on 20S proteasome [2] and in the data set on 20S proteasome [4] was “metabolite_detected” in each case.
As to `CSCC[C@H](NC(=O)[C@@H](NC(=O)[C@H](C)NC(=O)CN1CCOCC1)[C@@H](C)O)C(=O)N[C@@H](Cc1c[nH]c2ccccc12)C(=O)Nc1ccc(COC(=O)O[C@H]2C[C@H](C(=O)N[C@@H](C)c3ccc(-c4scnc4C)cc3)N(C(=O)[C@@H](NC(=O)COCCCOCCNC(=O)C[C@@H]3N=C(c4ccc(Cl)cc4)c4c(sc(C)c4C)-n4c(C)nnc43)C(C)(C)C)C2)cc1`, the result in data set [5] was inactive. The IC50 in the data set with Ramos [6] turned out to be 10 nM. Also, in data set [7], the Activity entry was “Toxic”. Also, the outcome in [8] was Active.
Take `COc1cccc2c1C(=O)c1c(O)c3c(c(O)c1C2=O)C[C@@](O)(C(=O)CO)C[C@@H]3O[C@H]1C[C@H](NC(=O)[C@H](Cc2c[nH]c3ccccc23)NC(=O)[C@H](CCSC)NC(=O)[C@@H](NC(=O)[C@H](C)NC(=O)CN2CCOCC2)[C@@H](C)O)[C@H](O)[C@H](C)O1` (Morpholinoacetyl-ATMW-{Doxorubicin(3'-N)}): the Stability result in [9] is reported as “Stable”. Also, in the data set on Ramos [10], the IC50 stood at 5500 nM. Moreover, the viability at 72 h, 20 µM in data set [11] is above 80%. The result in the data set on MM.1R and in the data set with Raji was Active.
With `COc1cccc2c1C(=O)c1c(O)c3c(c(O)c1C2=O)C[C@@](O)(C(=O)CO)C[C@@H]3O[C@H]1C[C@H](N)[C@H](O)[C@H](C)O1` [DOXORUBICIN], the concentration for half-maximal inhibition (IC50) at 72 h in [12] was determined as 233 nM.
On to `COc1cccc2c1C(=O)c1c(O)c3c(c(O)c1C2=O)C[C@@](O)(C(=O)CO)C[C@@H]3O[C@H]1C[C@H](NC(C)=O)[C@H](O)[C@H](C)O1`, for which the viability at 72 h, 10 µM in data set [13] is above 90%.
Regarding `COc1cccc2c1C(=O)c1c(O)c3c(c(O)c1C2=O)C[C@@](O)(C(=O)CO)C[C@@H]3O[C@H]1C[C@H](NC(=O)[C@H](Cc2ccc(O)cc2)NC(=O)[C@@H](NC(=O)[C@H](CC(C)C)NC(=O)[C@H](CC(C)C)NC(C)=O)C(C)C)[C@H](O)[C@H](C)O1` (Ac-LLVY-{Doxorubicin(3'-N)}), the Drug metabolism result is listed as “metabolite_notdetected” in the data set on 20S proteasome [1], “metabolite_detected” in the data set on 20S proteasome [2], “metabolite_notdetected” in data set [14] and “metabolite_detected” in [15].
As for `Cc1ncsc1-c1ccc([C@H](C)NC(=O)[C@@H]2C[C@@H](O)CN2C(=O)[C@@H](NC(=O)COCCCOCCNC(=O)C[C@@H]2N=C(c3ccc(Cl)cc3)c3c(sc(C)c3C)-n3c(C)nnc32)C(C)(C)C)cc1`, the half-maximal inhibitory concentration (IC50) with Ramos [6] is 10 nM. For the same compound, the result in data set [8] was Active.

The IC50 is the concentration needed to halve the response being measured.
